Data on 63 compounds can be found in a melting point compilation (Tetko et al.; mined from patent text by program, amines drawn as free bases though some values may be those of a salt).

In general, melting point refers to the temperature of the solid-liquid transition. `OCCN1CCC(=C2c3ccccc3CCn3ncnc32)CC1`: the melting point came out at 154 °C. In turn, `CC1(C)OC(=S)Nc2ccc(-c3cc(F)cc(C(F)(F)F)c3)cc21` registered a melting point of 204 to 206 °C. On to `CC(=O)Nc1ccc(C)c(NCCS(=O)(=O)F)c1`, for which the melting point was in the range of 154 to 155 °C. The compound `Cc1cccc2c1N(CC(=O)N1CC3CCC(CC3)C1)C(=O)C(NC(=O)Nc1cccc(C(=O)OC(C)(C)C)c1)N=C2c1ccccc1F` (stereo not drawn) returned a melting point of 230 to 232 °C. For `OCc1cnc2c(F)cccc2c1O`, the melting point lay within 176 to 178 °C.

For the compound `O=C1c2cccc3cc4ccccc4c(c23)C(=O)N1CCN1CCCN(CCN2C(=O)c3cccc4cc5ccccc5c(c34)C2=O)C1`, the melting point came to 222 °C.

`C=C(C)CNc1cc(C)nc2cn[nH]c12` showed a melting point of 161 to 164 °C. With `N#Cc1ccc(N)cc1N` the figure was 102 to 103 °C; with `C=CCn1c(=O)n(-c2cccc(C)n2)c2ncccc21`, 111 to 112 °C. Regarding `O=C1C(Cc2ccccc2)C(C(F)(F)F)=Nc2ccccc2N1Cc1ccccc1` (stereo not drawn), the melting point lay within 150 to 151 °C. As to `CC(C)(C)c1cc(-c2nc(Cl)nc(Cl)n2)cc(C(C)(C)C)c1O`, the melting point lay within 178 to 179 °C. On to `N#CNc1ccccc1N1CCOCC1`, for which the melting point is 175 to 176 °C. On to `COc1ccc(CN2C(=O)CCc3cc(O)c(OC)cc32)cc1`, for which the melting point was 168 to 169 °C. Compound `CN(C)CCNc1ccc2c3c(nn2C)-c2ccncc2C(=O)c13` returned a melting point of 212 to 216 °C. Compound `CC(C)N(C[C@H](O)CO)S(C)(=O)=O` yielded a melting point of 67 to 70 °C.

Take `COC(=O)c1ccc(NC(C)=O)cc1OC`: the melting point is 130 to 132 °C. Compound `O=C(c1ccccc1)c1cnn2c(-c3cccc(N4CCCC4=O)c3)ccnc12` displayed a melting point of 173 to 174 °C. `C[Si](C)(C)c1cc(Cl)sc1C(=O)NCCCl` displayed a melting point of 68 to 72 °C. `CCN1CCCC1CNC(=O)c1cc(NS(C)(=O)=O)ccc1OC` (stereo not drawn) showed a melting point of 171 to 172 °C. On to `COC(=O)c1cc2n(c1)CCCC2`, for which the melting point was in the range of 72 to 74 °C.

Regarding `CNC(=O)C(Cc1c[nH]c2ccccc12)NC(=O)Nc1n[nH]c(=S)s1` (stereo not drawn), the melting point was in the range of 205 to 210 °C. Turning to `O=C1N(CC2CCCO2)c2ccccc2C12COc1c[nH]c(=O)cc12` (stereo not drawn), the melting point is more than 250 °C. Turning to `Cc1c(NC(=O)c2ccc(CC(=O)CC(C)C)cc2)ccc2cc(CN3CCCC3)cnc12`, the melting point stood at 153 °C. With `CCOC(=O)c1cnc2c(c(C)nc3cc(C)nn32)c1O` the figure was 207 to 208 °C. In the case of `CN(C(=O)O)c1cccc(-c2ccnc3c(C(=O)c4cccs4)cnn23)c1`, the melting point was 215 to 217 °C. Compound `CC(C)(C)OC(=O)NNc1cccc([N+](=O)[O-])c1` displayed a melting point of 105 °C. `CCCCCN1C(=O)C(=O)c2cc(SCCCc3ccc(C(=O)O)cc3)ccc21` showed a melting point of 145 to 146 °C. `COc1cc(NC(NC2CCC2)=C(C#N)S(=O)(=O)c2ccc(Cl)cc2)cc(OC)c1` displayed a melting point of 164 °C. Consider `O=C(Nc1cc(-n2cccn2)nc(-c2ccco2)n1)OCC1CCCC1`, for which the melting point is 60 to 61.3 °C. With `CC(=O)c1nn(-c2c(Cl)cc(C(F)(F)F)cc2Cl)c(NSC(F)(F)F)c1S(C)=O` (stereo not drawn) the figure was 67 to 102 °C. Regarding `COc1ccccc1CC(=O)c1c(O)c2cccnc2n(-c2ccccc2)c1=O`, the melting point was 203 to 205 °C. With `COC(=O)c1nc(NC(=O)Nc2ccccc2)ccc1Oc1nc(OC)cc(OC)n1` the figure was 236 to 237 °C; with `CC(C)(C)c1cc(N2CCN(C(=O)c3ccc([N+](=O)[O-])cc3)C2=O)cc(C(C)(C)C)c1O`, more than 260 °C.

On to `CN1CCN(C(=O)c2c(Br)c(Br)c([N+](=O)[O-])c3c2OCCO3)CC1`, for which the melting point is 164 °C. The value for `CC(OCc1cc2cc(C(F)(F)F)ccc2n1S(=O)(=O)c1ccc2c(c1)OCCO2)C(=O)O` (stereo not drawn) was 70 °C; that for `C1=NNC(c2ccccc2)c2ccccc21` (stereo not drawn) was 79 °C.

`COc1ccc(Cn2cnc(N)c3nc(C(C)C)nc2-3)cc1OC1CCCC1` had a melting point of 190 to 193 °C. Turning to `CCN(CC)C(=O)n1ccc(S(=O)(=O)c2cccc(Cl)c2Cl)n1`, the melting point fell in the range of 60 to 61.5 °C.

In turn, `O=S(=O)(c1ccccc1)c1c[nH]c2c(C3CCNCC3)cccc12` registered a melting point of 186 to 190 °C.

`O=C(O)c1cc(C(=O)O)cc(S(=O)(=O)Nc2ccc(F)c(C(F)(F)F)c2)c1`: the melting point lay in the range of 286 to 288 °C. In turn, `O=C1c2ccccc2C(=O)N1Cc1ccc(SC(F)(F)F)cc1` displayed a melting point of 130 to 132 °C. The value for `CCc1cc2c3c(ccc2[nH]1)OCC(CN1CC=C(c2c[nH]c4ccc(F)cc24)CC1)O3` (stereo not drawn) was 81 to 82 °C; that for `CC(C)N(CCNc1nc(Nc2cccc(NS(C)(=O)=O)c2)nc2[nH]cnc12)C(C)C` was 226 to 230 °C; that for `Cc1csc(C(=O)OC(C)C)c1S(N)(=O)=O` was 76 °C.

`CCOC(=O)c1cccc2c1C(=O)N(C)Cc1c(C(=O)OCC)ncn1-2` displayed a melting point of 136 to 140 °C.

The compound `COCC1CN(c2ccc3cc(OCCS(C)(=O)=O)ccc3c2)C(=O)O1` (stereo not drawn) showed a melting point of 128 to 129 °C. Regarding `CCc1cc(O)n2ncc(CC)c2n1`, the melting point was more than 310 °C.

For `CCc1c(-c2ccc(O)cc2)c2cc(COCCN(C)C)c3cccc1n32`, the melting point was 141 to 143 °C. With `CS(=O)(=O)NNC(=O)c1nc(CS(=O)(=O)c2ccc(Cl)cc2)no1`, the melting point fell in the range of 198 to 202 °C.

Turning to `COc1cc(CCNC(=O)c2cccnc2)ccc1O`, the melting point lay within 192 to 194 °C. `CC(C)(C)c1cc2c(c(C(C)(C)C)c1)OC(=O)C2c1ccc(C#N)cc1` (stereo not drawn) displayed a melting point of 136 to 137 °C. With `Cn1c(=O)c2c(ncn2CC(O)COC(=O)COc2ccc(Cl)cc2)n(C)c1=O` (stereo not drawn) the figure was 81 to 83 °C; with `CCCCCCCCCCCCCCCCCCOc1cc(OCC(=O)O)cc(C(=O)N(CC(=O)O)CC(=O)O)c1`, 134 to 136 °C.

The compound `CCOP(=O)(CCc1cc(OCc2ccc(OCc3nc(-c4ccco4)oc3C)c(OC)c2)nn1-c1ccccc1)OCC` had a melting point of 76 to 77 °C. With `COCCOc1ccc(C2=NCCNC2=O)cc1` the figure was 130 to 132 °C. `CCCOc1ccccc1C(=O)CCC(=O)O`: the melting point fell in the range of 77 to 79 °C.

On to `O=S(=O)(NCCCO)c1ccc(Nc2nccc(-c3ccc(C(F)(F)F)cc3)n2)cc1`, for which the melting point is 204 to 205 °C. `C=C1C[C@@H]2C(=O)NC(=O)[C@@H]2C1` came in with a melting point of 135 to 137 °C. The value for `Nc1c(I)cc(Cl)cc1[N+](=O)[O-]` was 134 to 135 °C; that for `COc1cc2c(cc1S(=O)(=O)c1ccc(F)cc1)CCN(C)CC2` was 129 to 130 °C.

`COc1cc2c(c(OC)c1OC)CCN(c1nc(N)c3cc(OC)c(OC)c(OC)c3n1)C2`: the melting point was 193 to 195 °C. As for `CC(C)C=NNC1=NS(=O)(=O)c2ccccc21`, the melting point amounted to 225 °C.

In the case of `CCc1ccc(Cn2c(C)nc3ccc(C(=O)OC)nc32)c(Cl)c1`, the melting point lay in the range of 172 to 173 °C.
